Measurements published in patent US8796276B2, “Heterocyclic compounds for the treatment of neurological and psychological disorders” (Alkermes Pharma Ireland Limited, priority 2009, dated 2014).

Experiments:
[1] = system: D-Amphetamine-induced locomotion; experiment: Pharmacodynamic study in amphetamine-induced locomotion model; settings: D-AMPH 1.5 mg/kg IP
[2] = Pharmacokinetic evaluation of prodrugs in rats following intramuscular injection; assay type: in vivo, Male Sprague-Dawley rats; settings: rat, IM injection, plasma drug concentration; dose (mg/kg) and excipients/formulation differ per table line
Procedure: Pharmakokinetic Evaluation of Prodrugs in Rats Following Intramuscular Injection
Male Sprague-Dawley rats (Charles River Laboratories, Wilmington, Mass.) were obtained. Approximately 24 rats were used in each study. Rats were approximately 350-375 g at time of arrival. Rats were housed 2 per cage with ad libitum chow and water. Environmental conditions in the housing room: 64-67° F., 30% to 70% relative humidity, and 12:12-h light:dark cycle. All experiments were approved by the institutional animal care and use committee.
Rats were dosed IM by means of a 25 gauge, ⅝ in. needle with 1 cc syringe 0.3 mL suspension was withdrawn from the vial containing the test compound (see Table E). The […] was injected in the muscles of the hind limb after anesthesia with isoflourane. Blood samples were collected via a lateral tail vein after brief anesthesia with Isoflurane. A 27½ G needle and 1 cc syringe without an anticoagulant was used for the blood collection. Approximately […] of whole blood was collected at each sampling time-point of 6 hours, 24 hours and 2, 5, 7, 9, 12, 14, 21, 28, 35 days after administration. Once collected, whole blood was immediately transferred to tubes containing K2 EDTA, inverted 10-15 times and immediately placed on ice. The tubes were centrifuged for 2 minutes at >14,000 g's (11500 RPMs using Eppendorf Centrifuge 5417C, F45-30-11 rotor) at room temperature to separate plasma. Plasma samples were transferred to labeled plain tubes (MICROTAINER®; MFG# BD5962) and stored frozen at <−70° C.
Drug concentrations in plasma samples were analyzed by liquid chromatography-mass spectroscopy using appropriate parameters for each compound. Half-life, volume of distribution, clearance, maximal concentration, and AUC were calculated by using WinNonlin Version 5.2 software.

[3] = PO oral oil solution, 0.66, 10 and 20 mg/rat
[4] = PO oral oil solution, at the higher dose of 20 mg

SMILES | inhibition of increases in distance traveled caused by D-AMPH [1, 4] | AUC0-T [2] | further results
CCCCCC(=O)OCN1C(=O)CCc2ccc(OCCCCN3CCN(c4cccc(Cl)c4Cl)CC3)cc21 [Compound 4, (7-(4-(4-(2,3-dichlorophenyl)piperazin-1-yl)butoxy)-2-oxo-3,4-dihydroquinolin-1(2H)-yl)methyl hexanoate] |  |  | dose dependence of inhibition of distance travelled [1, 3]: did not appear to be dose dependent; inhibition of increases in distance traveled caused by D-AMPH [1, 3]: significantly inhibited
CCCCCCCCCCCC(=O)OCN1C(=O)CCc2ccc(OCCCCN3CCN(c4cccc(Cl)c4Cl)CC3)cc21 [Compound 7, (7-(4-(4-(2,3-dichlorophenyl)piperazin-1-yl)butoxy)-2-oxo-3,4-dihydroquinolin-1(2H)-yl)methyl dodecanoate] | significantly inhibit |  | 
CCCCCCCCCCCCCC(=O)OCN1C(=O)CCc2ccc(OCCCCN3CCN(c4cccc(Cl)c4Cl)CC3)cc21 [Compound 8, (7-(4-(4-(2,3-dichlorophenyl)piperazin-1-yl)butoxy)-2-oxo-3,4-dihydroquinolin-1(2H)-yl)methyl tetradecanoate] |  | 666.1 ng·days/mL | AUC0-14 [2]: 580.3 ng·days/mL
CNC(=O)OCN1C(=O)CCc2ccc(OCCCCN3CCN(c4cccc(Cl)c4Cl)CC3)cc21 [Compound 47, (7-(4-(4-(2,3-dichlorophenyl)piperazin-1-yl)butoxy)-2-oxo-3,4-dihydroquinolin-1(2H)-yl)methyl methylcarbamate] | significantly inhibit |  | 
CCOC(=O)OCN1C(=O)CCc2ccc(OCCCCN3CCN(c4cccc(Cl)c4Cl)CC3)cc21 [Compound 79, (7-(4-(4-(2,3-dichlorophenyl)piperazin-1-yl)butoxy)-2-oxo-3,4-dihydroquinolin-1(2H)-yl)methyl ethyl carbonate] |  | 940 ng·days/mL | 
